Results published in patent US20140275108A1, “NOVEL BENZENESULFONAMIDE COMPOUNDS, METHOD FOR SYNTHESIZING SAME, AND USE THEREOF IN MEDICINE AS WELL AS IN COSMETICS” (GALDERMA RESEARCH & DEVELOPMENT, priority 2013, published 2014).
Read-outs that look alike come from different tables or passages of the source. Each block holds one compound with its values, some of them ahead of it.

Assays:
[1] = molecular target: TACE enzyme (Homo sapiens, UniProt P78536); test: Enzymatic assay for TACE inhibition (fluorescent substrate); assay type: biochemical
Chain of TACE enzyme (P78536 215-477): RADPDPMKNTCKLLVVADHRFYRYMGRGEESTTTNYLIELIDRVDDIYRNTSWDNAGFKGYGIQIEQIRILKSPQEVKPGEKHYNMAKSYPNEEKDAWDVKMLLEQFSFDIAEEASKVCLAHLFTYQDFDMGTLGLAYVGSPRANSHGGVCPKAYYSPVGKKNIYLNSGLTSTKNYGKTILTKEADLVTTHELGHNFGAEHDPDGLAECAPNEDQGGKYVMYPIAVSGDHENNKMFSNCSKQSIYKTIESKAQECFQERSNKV

[2] = tested on: other MMPs; test: Inhibition of other MMPs (data not shown); assay type: biochemical
Source text: (§1) Several compounds were dose-response tested on TACE and MMP-1, MMP-3, and MMP-12 according to the same protocol as that described above.

[3] = molecular target: MMP-12 (Homo sapiens, UniProt P39900); test: Inhibition of MMPs, MMP-12; assay type: biochemical; details: Table 3, Example 30
Chain of MMP-12 (P39900 106-470): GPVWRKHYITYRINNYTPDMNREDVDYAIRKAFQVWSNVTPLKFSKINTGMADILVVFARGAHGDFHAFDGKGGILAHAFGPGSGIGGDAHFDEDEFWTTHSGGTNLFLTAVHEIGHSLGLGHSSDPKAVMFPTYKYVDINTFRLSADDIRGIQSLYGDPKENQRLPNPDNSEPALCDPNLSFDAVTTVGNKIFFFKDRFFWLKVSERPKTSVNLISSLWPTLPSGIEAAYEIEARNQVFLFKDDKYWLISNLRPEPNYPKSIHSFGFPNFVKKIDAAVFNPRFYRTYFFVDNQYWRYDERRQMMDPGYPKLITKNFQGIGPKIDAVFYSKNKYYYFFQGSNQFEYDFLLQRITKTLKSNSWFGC
Source text: as §1

[4] = tested on: TNFα; test: Mouse ear edema model, TNFα secretion by ear skin cells; assay type: in vivo, Balb/c mouse; details: ear tissue biopsy, topical Day 1 to Day 7; FIG. 2A
Experimental: (§2) P. acnes stimulates the production of inflammatory cytokines, such as TNFα and interleukins. In this Example, the mouse ear edema model was used to investigate inflammation induced by P. acnes. This is a chronic inflammation model involving intense innate and adaptive immunity. The thickness of the ear is measured each day to determine the amount of swelling caused by P. acnes. The amount of TNFα and IL-6 secreted is determined.
(§3) After one intradermal injection of live P. acnes on Day 0, each of the following preparations was topically applied once a day on the ear of a Balb/c mouse over the course of 7 days (from Day 1 to Day 7). […]
(§4) Preparations 1-3 served as controls for comparison with preparations 4-7. […] The thickness of the ear was measured each day with a caliper from day 1 until day 8. The amount of TNFα and IL-6 secreted by the skin cells was determined using tissue biopsy samples from the mouse ear. TNF-α and Il-6 were measured using the mouse BD™ Cytometric Bead Array Flex (BD Bioscience, Dosage by FacsArray).

[5] = tested on: edema induced by P. acnes; test: Mouse ear edema model, cutaneous inflammation induced by P. acnes (ear thickness); assay type: in vivo, Balb/c mouse; details: topical on mouse ear, Day 1 to Day 7, after intradermal live P. acnes; Compound D 0.1%, 0.3%, 0.6% once a day, 0.6% twice a day; CD0153F 0.01% once a day; FIG. 1
Experimental: as §2, §3, §4

[6] = molecular target: T1, MMP-1 (Homo sapiens, UniProt P03956); test: Selectivity assay, MMP-1; assay type: biochemical; details: Table 3, Example 30
T1 construct: purchased Calbiochem
T1 sequence (P03956 100-469): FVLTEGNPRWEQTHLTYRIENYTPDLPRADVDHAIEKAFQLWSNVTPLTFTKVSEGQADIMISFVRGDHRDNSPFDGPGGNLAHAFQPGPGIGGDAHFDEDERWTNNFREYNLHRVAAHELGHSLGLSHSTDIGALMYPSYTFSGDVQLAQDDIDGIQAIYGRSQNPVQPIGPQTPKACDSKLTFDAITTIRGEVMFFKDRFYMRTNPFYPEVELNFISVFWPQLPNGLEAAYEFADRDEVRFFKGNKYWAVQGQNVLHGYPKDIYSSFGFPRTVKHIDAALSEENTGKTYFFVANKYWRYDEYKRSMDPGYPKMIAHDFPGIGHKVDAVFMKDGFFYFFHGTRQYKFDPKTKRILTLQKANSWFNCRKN

[7] = tested on: IL-6; test: Mouse ear edema model, IL-6 secretion by ear skin cells; assay type: in vivo, Balb/c mouse; details: ear tissue biopsy, topical Day 1 to Day 7; FIG. 2B
Experimental: as §2, §3, §4

[8] = molecular target: T2, MMP-3 (Homo sapiens, UniProt P08254); test: Selectivity assay, MMP-3; assay type: biochemical; details: Table 3, Example 30
T2 construct: purchased Calbiochem
T2 sequence (P08254 100-477): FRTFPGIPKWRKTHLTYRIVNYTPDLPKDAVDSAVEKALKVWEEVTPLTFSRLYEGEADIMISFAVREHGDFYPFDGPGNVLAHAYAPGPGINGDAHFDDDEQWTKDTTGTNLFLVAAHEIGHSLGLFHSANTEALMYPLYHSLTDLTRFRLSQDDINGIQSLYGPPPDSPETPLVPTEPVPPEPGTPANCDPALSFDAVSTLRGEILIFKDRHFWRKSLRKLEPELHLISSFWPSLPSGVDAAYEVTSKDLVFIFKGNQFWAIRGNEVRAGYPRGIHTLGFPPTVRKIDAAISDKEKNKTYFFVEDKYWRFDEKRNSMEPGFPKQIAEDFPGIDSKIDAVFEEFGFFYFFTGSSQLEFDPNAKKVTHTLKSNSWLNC
Source text: The enzymes are purchased from Calbiochem.
as §1

[9] = Table 3, Example 30, read-out: TACE = ADAM 17 (IC50 nM)

IC50 [1, 9]: 51 nM
IC50 [3]: 226 nM
Compound: Cc1cc(COc2ccc(S(=O)(=O)NC[C@@H](C(=O)NO)N3CCOCC3)cc2)c2ccccc2n1 [B]
effect on other MMPs [2]: no effect

% TACE inhibition at 10 μM [1]: 100%
Compound: CC#CCOc1ccc(S(=O)(=O)N(C)CC(C(=O)NO)N2CCN(S(C)(=O)=O)CC2)cc1 (centres unmarked) [Example 1, 3-[(4-but-2-ynyloxybenzenesulfonyl)methylamino]-N-hydroxy-2-(4-methanesulfonylpiperazin-1-yl)propionamide]

The remaining lines, values behind:

Compound: CCCCC(=O)O[C@]1(C(=O)CO)[C@@H](C)C[C@H]2[C@@H]3CCC4=CC(=O)C=C[C@]4(C)[C@@]3(F)[C@@H](O)C[C@@]21C [CD0153F, betamethasone valerate, reference compound]
secretion of TNFα induced by P. acnes [4]: inhibiting TNFα secretion
inhibition of edema (ear swelling) induced by P. acnes [5]: inhibition of inflammation

Compound: Cc1cc(COc2ccc(S(=O)(=O)NC[C@@H](C(=O)NO)N3CCC(Cc4ccccc4)CC3)cc2)c2ccccc2n1 [C]
IC50 [1, 9]: 62 nM

Compound: Cc1cc(COc2ccc(S(=O)(=O)NC[C@@H](C(=O)NO)N3CCCCC3)cc2)c2ccccc2n1 [Compound A]
effect on other MMPs [2]: no effect
IC50 [3]: 977 nM

Compound: Cc1cc(COc2ccc(S(=O)(=O)NC[C@@H](C(=O)NO)N3CCC(S(=O)(=O)C(C)C)CC3)cc2)c2ccccc2n1 [Compound D]
IC50 [6]: 969 nM
secretion of TNFα induced by P. acnes [4]: greatly reduced
inhibition of edema (ear swelling) induced by P. acnes [5]: did not inhibit the edema
IC50 [1, 9]: 33 nM
secretion of IL-6 induced by P. acnes [7]: moderately reduced
IC50 [8]: 574 nM

Compound: CN(C[C@@H](C(=O)NO)N1CCN(S(C)(=O)=O)CC1)S(=O)(=O)c1ccc(OCc2ccccc2)cc1 [Example 4, (S)-3-[(4-Benzyloxybenzenesulfonyl)methylamino]-N-hydroxy-2-(4-methanesulfonylpiperazin-1-yl)propionamide]
% TACE inhibition at 10 μM [1]: 95%
IC50 ([1]; Table 1, read-out: IC50 - TACE): 497 nM
